Reference: patent publication EP1420018A1, “Pyrido[1,2-a]benzimidazole derivatives useful in treating central nervous system disorders” (Ortho-McNeil Pharmaceutical, Inc., priority 1996, dated 1998)
pIC50: −log10 of the molar value. Where a name gives a salt, the structure may show the parent alone. Read-outs that look alike come from different tables or passages of the source.

Experiments:
[1] = test system: metrazol-induced convulsions; experiment: Suppression of Metrazol-Induced Convulsions in Adult Male Mice; format: in vivo; conditions: Mus musculus, ip, mouse
Procedure: Assay to Determine the Suppression of Metrazol-Induced Convulsions in Adult Male Mice
Male CD1 mice, were fasted at least 16 hours, were divided into equal groups and test compounds or vehicle were administered parenterally. Water was not withheld except during the period of observations. […] Metrazol was dissolved in 0.9% sodium chloride solution, and its dose volume was 10 ml/kg. Animals were housed individually for observation of clonic convulsions, tonic convulsions and death for a period of 30 min. […] The biological assay was considered to be valid if the effects of a known anticonvulsant (positive control) were detected, within the same experiment. Activity was reported as percent reduction of clonic convulsions from the vehicle group.

[2] = test system: metrazol-induced convulsions; experiment: as above; format: in vivo; conditions: Mus musculus, po, mouse
[3] = biological target: benzodiazepine site of the GABA-A receptor; experiment: Benzodiazepine Receptor Binding Assay (inhibition of 3H-flunitrazepam binding); conditions: read-out: GABAA Receptor Binding IC50
[4] = test system: Anxiety in the Adult Male Rat; experiment: Suppression of Anxiety in the Adult Male Rat (rat conflict test); format: in vivo, rats; conditions: Rattus norvegicus, rat
Procedure: Assay to Measure the Suppression of Anxiety in the Adult Male Rat
Male rats were deprived of water for 48 hours and were deprived of food for 24 hours prior to testing. After the first 24 hours of water deprivation, they were placed in the conflict chamber for a training period; wherein, they were allowed 200 unpunished licks from a bottle containing tap water. The experiment was run the next day. At the expected time of peak activity, the animals were placed in the chamber and allowed access to tap water. […] Their first lick initiates a 3-min test session. Subsequently, every 20th lick was punished by a 0.2-s shock delivered via the stainless-steel drinking-tube.
The Wilcoxon rank-sum test (Mann-Whitney U-test) was used to test for an increase (p<0.05, 1-tailed) in the median number of shocks in drug-treated groups, compared to a concurrently run vehicle-treated group. The biological assay is considered to be valid if the effects of a known anxiolytic (positive control) are detected, within the same experiment.

[5] = po, po, read-out: Rat Conflict (MED, mg/kg) po
[6] = ip, ip, read-out: Rat Conflict (MED, mg/kg) ip

| pIC50 [3] | Structure (SMILES) | ED50 [1] | ED50 [2] | minimal effective dose [4, 5] | minimal effective dose [4, 6] |
| --- | --- | --- | --- | --- | --- |
| 8.09 | O=C1CCN2C(=C1C(=O)Nc1ccccc1F)N(CCNC(=O)c1ccccc1)c1cc(F)ccc12 [Compound 46] | 1 mg/kg | 30 mg/kg | ~10 mg/kg |  |
| 7.86 | O=C1CCN2C(=C1C(=O)Nc1ccccc1F)N(CCNS(=O)(=O)c1cccs1)c1cc(F)ccc12 [Compound 47] | 1 mg/kg | 30 mg/kg |  | > 10 mg/kg |
| 7.52 | O=C1CCN2C(=C1C(=O)Nc1ccccc1F)N(CCNS(=O)(=O)C(F)(F)F)c1cc(F)ccc12 [Compound 48, 7-Fluoro-1,2-dihydro-5-[2-(trifluoromethylsulfonamido)ethyl]-3-oxo-N-(2-fluorophenyl)pyrido[1,2-a]benzimidazole-4-carboxamide] | ≤ 1 mg/kg | < 30 mg/kg | 10 mg/kg |  |
| 6.82 | CN(C)CCN1C2=C(C(=O)Nc3cccs3)C(=O)CCN2c2ccc(F)cc21 [Compound 49] | 3 mg/kg | ~5 mg/kg | ~10 mg/kg | > 10 mg/kg |
| 8.11 | CS(=O)(=O)NCCN1C2=C(C(=O)Nc3ccccc3F)C(=O)CCN2c2ccc(F)cc21 [Compound 50] | 1 mg/kg | < 30 mg/kg |  | > 10 mg/kg |
| 9.29 | O=C1CCN2C(=C1C(=O)Nc1ccccc1F)N(CCNC(=O)C(F)(F)F)c1cc(F)ccc12 [Compound 51] | 0.3 mg/kg | 1 mg/kg | > 10 mg/kg | ~10 mg/kg |
| 8.13 | COCCNCCN1C2=C(C(=O)Nc3ccccc3F)C(=O)CCN2c2ccc(F)cc21 [Compound 52] | 1 mg/kg | 1 mg/kg | 10 mg/kg | ~10 mg/kg |
| 8.26 | CC(=O)NCCN1C2=C(C(=O)Nc3ccccc3F)C(=O)CCN2c2ccc(F)cc21 [Compound 53] | 7 mg/kg | 30 mg/kg |  | > 10 mg/kg |
| 6.68 | CN(C)CCN1C2=C(C(=O)Nc3c(F)cc(F)cc3F)C(=O)CCN2c2ccc(F)cc21 [Compound 54] | 10 mg/kg | > 30 mg/kg |  | > 10 mg/kg |
| 7.50 | CN(C)CCN1C2=C(C(=O)Nc3ccc(F)cc3F)C(=O)CCN2c2ccc(F)cc21 [Compound 55] | 1 mg/kg | 1 mg/kg | 3 mg/kg | < 10 mg/kg |
| 8.10 | COCCN(CCN1C2=C(C(=O)Nc3ccccc3F)C(=O)CCN2c2ccc(F)cc21)Cc1ccccc1 [Compound 56] | 1 mg/kg | ~10 mg/kg |  | > 10 mg/kg |
| 8.29 | NCCN1C2=C(C(=O)Nc3ccccc3F)C(=O)CCN2c2ccc(F)cc21 [Compound 57] | 0.3 mg/kg | 10 mg/kg | 10 mg/kg | ~10 mg/kg |
| 9.27 | CC(C)(C)OC(=O)NCCN1C2=C(C(=O)Nc3ccccc3F)C(=O)CCN2c2ccc(F)cc21 [Compound 58] | < 1 mg/kg | < 30 mg/kg | > 10 mg/kg | ≤ 10 mg/kg |
| 7.80 | CNCCN1C2=C(C(=O)Nc3ccccc3F)C(=O)CCN2c2ccc(F)cc21 [Compound 59, 7-Fluoro-1,2-dihydro-5-[2-(methylamino)ethyl]-3-oxo-N-(2-fluorophenyl)pyrido[1,2-a]benzimidazole-4-carboxamide hydrochloride hydrate (4:4:5)] | 3 mg/kg | 10 mg/kg | 1 mg/kg | 10 mg/kg |
| 8.20 | O=C(CN1C2=C(C(=O)Nc3ccccc3F)C(=O)CCN2c2ccc(F)cc21)Nc1ccccc1F [Compound 61, 7-Fluoro-1,2-dihydro-5-[N-(2-fluorophenyl)-2-acetamido]-3-oxo-N-(2-fluorophenyl)pyrido[1,2-a]benzimidazole-4-carboxamide] | < 1 mg/kg | 30 mg/kg |  | > 10 mg/kg |
| 8.11 | CN(CCN1C2=C(C(=O)Nc3ccccc3F)C(=O)CCN2c2ccc(F)cc21)Cc1ccc(F)cc1 [Compound 62] | 3 mg/kg | 30 mg/kg | > 10 mg/kg | < 10 mg/kg |
| 8.52 | O=C1CCN2C(=C1C(=O)Nc1ccccc1F)N(CCN(Cc1ccccc1)Cc1ccccc1)c1cc(F)ccc12 [Compound 64] | 3 mg/kg | > 30 mg/kg |  | > 10 mg/kg |
| 7.96 | CN(CCN1C2=C(C(=O)Nc3c(F)cccc3F)C(=O)CCN2c2ccc(F)cc21)Cc1ccc(F)cc1 [Compound 65] | > 10 mg/kg | > 30 mg/kg |  | > 10 mg/kg |

| pIC50 [3] | Structure (SMILES) | ED50 [1] | ED50 [2] | minimal effective dose [4, 5] | minimal effective dose [4, 6] |
| --- | --- | --- | --- | --- | --- |
| 7.08 | CN(C)CCCN1C2=C(C(=O)Nc3c(F)cccc3F)C(=O)CCN2c2ccc(F)cc21 [Compound 66] | > 30 mg/kg | > 10 mg/kg |  | > 10 mg/kg |
| 8.48 | CN(C)CCCN1C2=C(C(=O)Nc3ccccc3F)C(=O)CCN2c2ccc(F)cc21 [Compound 67] | 3 mg/kg | 30 mg/kg | > 10 mg/kg | 10 mg/kg |
| 7.35 | CC(C)N(CCN1C2=C(C(=O)Nc3c(F)cccc3F)C(=O)CCN2c2ccc(F)cc21)C(C)C [Compound 68] | > 10 mg/kg | > 30 mg/kg |  | 10 mg/kg |
| 7.11 | CC(C)N(CCN1C2=C(C(=O)Nc3ccccc3F)C(=O)CCN2c2ccc(F)cc21)C(C)C [Compound 69] | 1 mg/kg | > 30 mg/kg |  | > 10 mg/kg |
| 6.57 | CCN(CC)CCN1C2=C(C(=O)Nc3c(F)cccc3F)C(=O)CCN2c2ccc(F)cc21 [Compound 70] | > 10 mg/kg | > 30 mg/kg |  | > 10 mg/kg |
| 7.13 | CCN(CC)CCN1C2=C(C(=O)Nc3ccccc3F)C(=O)CCN2c2ccc(F)cc21 [Compound 71] | 2 mg/kg | 10 mg/kg | > 10 mg/kg | < 10 mg/kg |
| 5.42 | CN(C)CCN1C2=C(C(=O)Nc3ccncc3)C(=O)CCN2c2ccccc21 [Compound 72] | > 10 mg/kg | > 30 mg/kg |  | > 10 mg/kg |
| 7.49 | CN(C)CCN1C2=C(C(=O)Nc3c(F)cccc3F)C(=O)CCN2c2ccc(F)cc21 [Compound 73] | > 10 mg/kg | > 30 mg/kg |  | > 10 mg/kg |
| 7.30 | CN(C)CCN1C2=C(C(=O)Nc3ccccc3F)C(=O)CCN2c2ccc(F)cc21 [Compound 74, 7-Fluoro-1,2-dihydro-5-(2-dimethylaminoethyl)-3-oxo-N-(2-fluorophenyl)pyrido[1,2-a]benzimidazole-4-carboxamide hydrochloride hydrate (4:4:1)] | 0.5 mg/kg | < 3 mg/kg | 3 mg/kg | < 10 mg/kg |
| 8.02 | O=C1CCN2C(=C1C(=O)Nc1ccccc1F)N(CCNC(=O)c1cccc(C(F)(F)F)c1)c1cc(F)ccc12 [Compound 75] | > 1 mg/kg | > 30 mg/kg | > 10 mg/kg |  |
| 7.39 | O=C1CCN2C(=C1C(=O)Nc1ccccc1F)N(CCNC(=O)c1ccccc1C(F)(F)F)c1cc(F)ccc12 [Compound 76] | > 1 mg/kg | > 30 mg/kg | > 10 mg/kg |  |
| 9.07 | N#CCN1C2=C(C(=O)NC3CC3)C(=O)CCN2c2ccc(F)cc21 [Compound 77] | < 1 mg/kg | > 30 mg/kg | > 10 mg/kg |  |
| 7.52 | N#CCN1C2=C(C(=O)NC3CCCCC3)C(=O)CCN2c2ccc(F)cc21 [Compound 78] | > 1 mg/kg | > 30 mg/kg | > 10 mg/kg |  |
| 7.98 | CC(C)NC(=O)NCCN1C2=C(C(=O)Nc3ccccc3F)C(=O)CCN2c2ccc(F)cc21 [Compound 79] | > 1 mg/kg | > 30 mg/kg | > 10 mg/kg |  |
| 8.43 | CC(C)(C)OC(=O)N1CCN(CCN2C3=C(C(=O)Nc4ccccc4F)C(=O)CCN3c3ccc(F)cc32)CC1 [Compound 80] | > 1 mg/kg | > 30 mg/kg | > 10 mg/kg |  |
| 7.90 | O=C1CCN2C(=C1C(=O)Nc1ccccc1F)N(CCN1CCNCC1)c1cc(F)ccc12 [Compound 81] | > 1 mg/kg | > 30 mg/kg | > 10 mg/kg |  |
| 7.44 | CN(C)c1ccc(CCN2C3=C(C(=O)Nc4c(F)cccc4F)C(=O)CCN3c3ccc(F)cc32)cc1 [Compound 83] | 3 mg/kg | < 30 mg/kg |  | > 10 mg/kg |
| 8.07 | CN(C)c1ccc(CCN2C3=C(C(=O)Nc4ccccc4F)C(=O)CCN3c3ccc(F)cc32)cc1 [Compound 84] | 1 mg/kg | < 30 mg/kg |  | > 10 mg/kg |
